{"source": "patent US8551997B2", "about": "“Structural-based inhibitors of the glutathione binding site in aldose reductase, methods of screening therefor and methods of use” (The Board of Regents of the University of Texas System, priority 2004, dated 2013)", "key": {"[1]": {"target": "aldose reductase (Homo sapiens, UniProt P15121)", "settings": "cited from earlier work"}, "[2]": {"system": "Caco-2 cells", "test": "PGE2 assay in Caco-2 cells", "format": "cell-based, human", "settings": "preincubation with inhibitor 30 min, BFGF or PDGF 24 h", "description": "(§1) Caco-2 cells were plated in 6 well plates at a density of 2×10^5 cells/well. After 24 hours, the medium was replaced with fresh medium containing 0.1% serum with or without, sorbinil (20 μM) followed by treatment with either 10 ng/ml BFGF or PDGF, for another 24 h. HT29 cells were plated in 6 well plate at a density of 2×10^5 cells/well. After 24 hours, medium was replaced with serum-free medium with or without, sorbinil or zopolrestat (20 μM) followed by treatment with either EGF (5 ng/ml) or BFGF (10 ng/ml) for another 24 h. The medium from each cell lines was collected from each well and analyzed for PGE2 by using an Enzyme Immuno Assay kit according to the manufacturer's instructions (Cayman Chemical Co., Inc.).\nBriefly, 50 μl of diluted standard/sample were pipetted into a pre-coated goat polyclonal anti-mouse IgG 96-well plate. Aliquots (50 μl) of a PGE2 monoclonal antibody and PGE2 acetylcholine esterase (AchE) conjugate, (PGE2 tracer) were added to each well and allowed to incubate at 4° C. for 24 h. After incubation, the wells were washed five times with wash buffer containing 0.05% Tween-20, followed by the addition of 200 μl of Ellman's reagent containing acetylthiocholine and 5,5′-dithio-bis-(2-nitrobenzoic acid). Samples were read after 60 min at 412 nm with an ELISA reader. In this procedure the intensity of yellow color, is proportional to the amount of PGE2 tracer bound to the well and is inversely proportional to the amount of free PGE2 present in the well during incubation."}, "[3]": {"system": "rat VSMC cells", "test": "High glucose-induced TNF-a production in VSMC", "format": "cell-based", "settings": "for high glucose-induced TNF-a secretion: preincubated 1 h, then 19.5 mM glucose, apocyanin 25 mM, calphostin C 0.2 mM, N-acetyl cysteine 10 mM, sorbinil or tolrestat 10 mM each, or AR antisense ablated", "description": "Growth-arrested VSMC in 5.5 mM glucose (NG) were preincubated for 1 h without or with apocyanin (25 mM), D609 (100 mM), calphostin C (0.2 mM), N-acetyl cysteine (10 mM) and NF-kB inhibitor (18 mM) (FIG. 4A) and without or with sorbinil or tolrestat (10 mM each) (FIG. 4B) followed by the addition of glucose (19.5 mM) and incubation for the indicated times. AR antisense ablated VSMC were incubated with HG for the indicated times (FIG. 4C).\nGrowth-arrested VSMC in 5.5 mM glucose (NG) were preincubated for 1 h without or with apocyanin (25 mM), D609 (100 mM), calphostin C (0.2 mM), N-acetyl cysteine (10 mM) and NF-kB inhibitor (18 mM) respectively, followed by the addition of 19.5 mM glucose, after which the cells were incubated for 12 and 24 hrs."}, "[4]": {"system": "A549 cells", "test": "A549 cell proliferation, MTT assay", "format": "cell-based", "settings": "Homo sapiens, 24 hrs", "description": "A549 cells were grown to confluence in Ham's F12K medium containing 10% FBS and harvested, and plated at 5000 cells per well in a 96-well plate. After 24 hrs A549 cells were treated with or without AR inhibitor sorbinil or tolrestat with various concentrations for another 24 hrs. Cells incubated without AR inhibitors served as control. Cell viability was determined by and MTT assay."}, "[5]": {"system": "A549 cells", "test": "Western blot of Cox-2 and iNOS in A549 cells", "format": "cell-based, human", "settings": "concentration dependent", "description": "(§2) To examine expression of any of Cox-1, Cox-2, phospho-PKC-2, GAPDH, E2F1, Cyclin D1, Cyclin E, and iNOS proteins, Western blot analyses were carried by known methods (15). Equal amounts of protein from cell extracts were subjected to 12% SDS-PAGE followed by transfer of proteins to nitrocellulose filters, probing with the indicated antibodies, and the antigen-antibody complex was detected by enhanced chemiluminescence (Pierce, Piscataway, N.J., USA)."}, "[6]": {"system": "A549 cells", "test": "Western blot of cell cycle regulatory proteins in A549 cells", "format": "cell-based, human", "settings": "various concentrations", "description": "as §2"}, "[7]": {"system": "Caco-2 cells", "test": "Reactive oxygen species in Caco-2 cells (DCFH-DA)", "format": "cell-based, human", "settings": "20 μM, FGF or PDGF 10 ng/ml 60 min", "description": "Caco-2 cells were plated in a 24-well plate at a density of 1.5×10^4 cells/well in DMEM and then serum-starved at 60-70% confluence in the absence and presence of 20 μM sorbinil or tolrestat for overnight in phenol red-free DMEM supplemented with 0.1% FBS. Cells were then pre-incubated for 30 min with the ROS-sensitive fluorophore 2′,7′-dichlorofluorescein diacetate (DCFH-DA), which is taken up and oxidized to the fluorescent dichlorofluorescein by intracellular ROS. After incubation with DCFH-DA, the cells were exposed to FGF or PDGF 10 ng/ml for 60 min and fluorescence was measured with a CytoFluorII fluorescence plate reader (PerSeptive Biosystems, Inc., Framingham, Mass.) at excitation of 485 nm and emission of 528 nm."}, "[8]": {"system": "HT29 cells", "test": "HT29 cell proliferation, MTT assay", "format": "cell-based", "settings": "inhibitor alone", "description": "HT29 cells were grown to confluence in McCoy's medium and harvested and plated 2,500 per well in a 96-well plate. Subconfluent cells were growth arrested in 0.1% FBS with or without AR inhibitor sorbinil or zopolrestat (20 μM). After 24 hours, EGF (5 ng/ml) or BFGF (10 ng/ml) was added to the medium and the cells were incubated for another 24 hours. Cells incubated with the AR inhibitors alone served as control. Cell viability was determined by an MTT assay."}, "[9]": {"system": "HT29 cells", "test": "PGE2 assay in HT29 cells", "format": "cell-based", "settings": "inhibitor alone", "description": "as §1\nBriefly, 50 μl of diluted standard/sample were pipetted into a pre-coated goat polyclonal anti-mouse IgG 96-well plate. Aliquots (50 μl) of a PGE2 monoclonal antibody and PGE2 acetylcholine esterase (AchE) conjugate, (PGE2 tracer) were added to each well and allowed to incubate at 4° C. for 24 h. After incubation, the wells were washed five times with wash buffer containing 0.05% Tween-20, followed by the addition of 200 μl of Ellman's reagent containing acetylthiocholine and 5,5′-dithio-bis-(2-nitrobenzoic acid). Samples were read after 60 min at 412 nm with an ELISA reader. […]"}, "[10]": {"system": "A549 xenografts", "test": "A549 xenografts in nude mice", "format": "in vivo, mouse", "description": "The levels of ROS in sections of A549 xenografts was determined using dihydroethidium (Het; Molecular Probes, Eugene, Oreg.). The Het dye gives red fluorescence when oxidized to EtBr in the presence of ROS such as O2. Serial sections ([…]) of para-formaldehyde fixed xenografts were deparafinized and rehydrated and incubated with Het dye (5 μM in PBS) for 30 min at 37° C. followed by acquisition of images using a fluorescence microscope 200× magnification.\nNine mice (20 weeks old) were divided into three groups of three animals and were treated with PBS, scrambled AR siRNA, and AR-siRNA, respectively. All nine animals were injected with 2×10^6 A549 human lung carcinoma cell suspensions in 100 μl PBS s.c. Animals were examined daily for signs of tumor growth. Treatment was given two times (day 1 and day 14) when the tumor surface area approximately 45 mm^2 (day 25). Treatment consisted of 200 μg AR-siRNA in 100 μl PBS. Control groups were treated with 200 μg/100 μl scrambled siRNA or diluent (PBS) alone. For the determination of effect of AR inhibitor, animals were fed with zopolrestat (40 mg/kg body weight) in the diet. Tumors were measured in two dimensions using calipers.\nSerial sections ([…]) of para-formaldehyde fixed xenografts were deparafenized and rehydrated and incubated with peptide specific AR antibodies and developed using DakoCytomation LSAB+System-HRP kit. The intensity of staining was observed under light microscope with 200× magnification.\nThe results obtained from in vitro studies were confirmed by in vivo nude mice model bearing human lung carcinoma A549 cells. A549 (2×10^6) cells were implanted s.c. and allowed to grow in nu/nu nude mice to ˜45 mm^2 over a period of 25 days. Animals were grouped into control and experimental groups. Control group were fed with regular diet and experimental group was fed with AR inhibitor, Zopolrestat (after 10 days dose increased from 20 mg to 40 mg/kg/body weight) for until end of the experiment. Tumor growth was measured every two days using calipers. The photographs of animals were taken at days 1, 14, and 37 (FIGS. 20A-20B)."}, "[11]": {"system": "RAW264.7 macrophages", "test": "LPS- and lipid aldehyde-induced signaling in RAW264.7 macrophages", "format": "cell-based", "description": "At the indicated times, cells were harvested for measurement of HNE (FIG. 5A), protein-HNE adducts (FIG. 5B), NF-kB (FIG. 5C), and TNF-a and IL-6 (FIG. 5D) as described in the methods. Cells were growth arrested as described above or transfected with control or AR siRNA oligonucleotides, incubated with GS-HNE-ester, or GS-DHN-ester (1 mM), and harvested for determination of NF-kB (FIG. 5E), membrane-bound total PKC (FIG. 5F).\nTo determine if GS-DHN serves as a cellular sensor of ROS-induced insults, its effects on phosphorylation events upstream of IKK/NF-κB activation in RAW264.7 macrophages was examined."}, "[12]": {"system": "SW480 xenografts", "parameters": "tumor progression: dose or concentration left out as unconfirmed", "experimental": "Nine 20-weeks-old athymic nu/nu nude mice were divided into three groups of 3 animals (Group 1: treated with PBS; Group 2: treated with scrambled siRNA and Group 3: treated with aldose-reductase siRNA). An aliquot of 2×10^6 SW480 human colon adenocarcinoma cell suspensions in 100 μl PBS was injected subcutaneously into one flank of each nu/nu nude mouse. Animals were examined daily for signs of tumor growth. Treatment was administered when the tumor surface area exceeded 45 mm^2, i.e., day 25. Treatment consisted of 200 mg aldose-reductase siRNA in 100 ml PBS administered intraperitoneally. Control groups were treated with 200 mg/100 ml scrambled siRNA, or diluent (PBS) alone. Mice were treated on days 1 and 14. Tumors were measured in two dimensions using calipers over 40 days."}, "[13]": {"settings": "compared to control and scrambled siRNA"}}}
{"compound": "N[C@@H](CCC(=O)N[C@@H](CSC(CC(=O)O)C(=O)O)C(=O)NCC(=O)O)C(=O)O", "note": "(stereo partly drawn) [DCEG, S-(1,2-dicarboxyethyl) glutathione, γ-glutamyl-S-(1,2-dicarboxyethyl)cysteinylglycine]", "values": [{"measurement": "inhibition of AR-catalyzed reaction of glutathionyl-propanal", "setting": "[1]", "result": "competitive inhibitor"}, {"measurement": "inhibition of aldehyde reduction by aldose reductase", "setting": "[1]", "result": "competitive inhibitor"}]}
{"compound": "CC(=O)N[C@@H](CS)C(=O)O", "note": "[N-acetylcysteine]", "values": [{"measurement": "growth factor-induced production of PGE2", "setting": "[2]", "result": "attenuated"}]}
{"compound": "COc1ccc2c(C(=S)N(C)CC(=O)O)cccc2c1C(F)(F)F", "note": "[tolrestat]", "values": [{"measurement": "basal levels of TNF-a", "setting": "[3]; media containing 5.5 mM glucose, mannitol, or 3-OMG", "result": "did not affect"}, {"measurement": "high glucose-induced TNF-a secretion", "setting": "[3]", "result": "prevents"}, {"measurement": "inhibition at 100 µM", "setting": "[4]", "result": "> 75", "unit": "%"}, {"measurement": "Cox-2 and iNOS expression", "setting": "[5]", "result": "inhibit"}, {"measurement": "E2F-1, Cyclin E and Cyclin D1 expression", "setting": "[6]", "result": "significant inhibition"}, {"measurement": "growth factor-induced increase in ROS", "setting": "[7]", "result": "inhibited"}]}
{"compound": "O=C(O)Cc1nn(Cc2nc3cc(C(F)(F)F)ccc3s2)c(=O)c2ccccc12", "note": "[zopolrestat, 3,4-dihydro-4-oxo-3-[[5-(trifluoromethyl)-2-benzothiazolyl]methyl]-1-phthalazineacetic acid]", "values": [{"measurement": "HT29 cells proliferation", "setting": "[8]", "result": "did not cause any effect"}, {"measurement": "constitutive levels of PGE2", "setting": "[9]", "result": "did not inhibit"}, {"measurement": "normal weight gain of animals", "setting": "[10]; zopolrestat in the diet", "result": "None of the treatments interfered"}, {"measurement": "tumor progression", "setting": "[10]; zopolrestat in the diet, 20 mg to 40 mg/kg/body weight", "result": "completely arrested"}]}
{"compound": "AR-siRNA: AR-siRNA (5′-AATCGGTGTCTCCAACTTCAA-3′; SEQ ID NO: 1) synthesized by Dharmacon Research (chemistry not given here)", "values": [{"measurement": "ability of GS-DHN to activate NF-κB", "setting": "[11]", "result": "had no effect"}, {"measurement": "effects of HNE/GS-HNE on IKK-a/b phosphorylation and NF-kB translocation", "setting": "[11]", "result": "significantly blunted"}, {"measurement": "AR protein expression in xenograft sections", "setting": "[10]; [13]", "result": "significantly prevention"}, {"measurement": "ROS production in xenograft sections (HEt red fluorescence)", "setting": "[10]; [13]", "result": "significantly reduced"}, {"measurement": "progression of tumor growth", "setting": "[10]; i.p. 200 μg AR-siRNA in 100 μl PBS on days 1 and 14", "result": "inhibited completely"}, {"measurement": "tumor progression", "setting": "[12]; intraperitoneally, days 1 and 14", "result": "completely arrested"}, {"measurement": "normal weight gain of animals", "setting": "[12]; mouse, in vivo", "result": "without interfering"}]}
{"compound": "calphostin C", "values": [{"measurement": "high glucose-induced TNF-a secretion", "setting": "[3]", "result": "markedly decreased"}, {"measurement": "growth factor-induced production of PGE2", "setting": "[2]", "result": "attenuated"}]}
{"compound": "glutathionyl-1,4-dihydroxynonene [GS-DHN]", "values": [{"measurement": "increase of protein kinase C (PKC) activity after GS-DHN challenge", "setting": "[11]; within 60 min", "result": "~2.5", "unit": "fold"}]}
